Laboratory results: patent US11541059B2, “Heterocyclic compounds and uses thereof” (Infinity Pharmaceuticals, Inc., priority 2014, dated 2023)

Legend:
[1] = test system: 4T1 breast cancer; test: Subcutaneous 4T1 breast cancer model; assay type: in vivo; conditions: co-administration with docetaxel, paclitaxel, or 5-FU
[2] = test system: tumor growth; test: Tumor growth with Compound BB alone or co-administered with 5-FU (FIG. 35); assay type: in vivo
[3] = test system: spleen T cell proliferation; test: Ex vivo T-cell proliferation assay with tumor-derived cells; assay type: cell-based, mouse
[4] = test system: differentiation of myeloid cells into M2 TAMs; test: Murine M2 TAM differentiation (ARG1); assay type: cell-based, mouse; conditions: FIG. 22A, 22B
Excerpt: High ARG1 (Arginase-1) levels indicate that myeloid cells are differentiating into M2 macrophages, so lower ARG1 levels relative to a control indicate interference with differentiation into M2 macrophages. Expression of Arginase-1 depletes the tumor microenvironment of arginine, thereby promoting T cell death and NK cell inhibition. Schmid et. al., Proceedings: AACR 103rd Annual Meeting 2012, Cancer Research: Apr. 15, 2012; Volume 72, Issue 8, Supplement 1. […] M2 TAMs promote cancer cell survival (FIG. 23).

[5] = test system: bone marrow cells differentiating into MDSCs (VEGF, ARG1); test: Myeloid Derived Suppressor Cell differentiation assay; assay type: cell-based; conditions: FIG. 24A, 24B
Protocol: A similar experiment was performed on bone marrow cells differentiating into MDSCs.

[6] = test system: TAMs / CD206 in LLC tumor brei; test: Flow cytometry of tumor-associated myeloid cells, LLC tumor brei; assay type: in vivo, mouse
Protocol: Flow cytometry was performed to obtain a more extensive cellular subset analysis. In particular, the study examined T cell vs. Myeloid cells, Myeloid cell subsets, Regulatory vs. effector T cells, and Tumor markers vs. WBC (e.g., PD-L1 expression on tumor).
Different populations of tumor-associated myeloid cells can be identified by flow cytometry, e.g., monocytic immature myeloid cells (iMC),Granulocytic iMCs/Neutrophils, Tumor Associated Macrophages (TAMs), and Granulocytic MDSCs. The different populations, and panels for detecting MDSCs, are described in Cancer Discovery 2011; 1:54-67. Tumors may vary in their myeloid cell composition.

[7] = test system: immune gene expression in KPC tumors; test: RNA expression profiling (TLDA) of KPC pancreatic tumors; assay type: in vivo, mouse; conditions: 3 mg/kg, with or without PDL-1 antibody
Protocol: RNA expression profiling was performed for immuno-phenotyping with a Tagman low density array (TLDA).
For mouse tumors, snap frozen samples were powdered with a Genogrinder at liquid nitrogen temperatures and RNA was isolated with Trizol. Next, the sample was cleaned-up using Qiashredder, and then using a RNeasy kit.
CT values were used for analysis. For each sample Si and each gene, the following values were calculated: dCT(Si,gene)=CT(Si,gene)−CT(Si,ACTB) ddCT(Si,gene)=dCT(Si,gene)−median(dCT(vehicle treated samples,gene)) RQ(Si,gene)=2^(−ddCT(Si,gene))
This produced a matrix of RQ values: 48 genes (rows)×39 samples (cols).
The analysis used R package Non-negative Matrix Factorization (NMF) with rank=3 and the “lee” algorithm.

[8] = Human hep viability; assay type: cell-based; conditions: human hepatocytes
[9] = test system: LLC tumor; test: LLC tumor brei model with or without cyclophosphamide; assay type: in vivo, mouse; conditions: BB 15 mg/kg QD PO; cyclophosphamide 50 mg/kg EOD IP, FIG. 48
Protocol: In this experiment, treatment began when tumors reached approx. 150 mm^3—around day 12. Caliper and xenogen images were monitored. Treatment groups n=13-15/group. […] Samples for FACs analysis were collected on day 23 post implant. Using FACS, cells were assayed for the level of CD11b and Gr-1.

[10] = test system: CD206 population in LLC tumors; test: CD206 levels of macrophages in LLC tumors (FACS); assay type: in vivo, mouse; conditions: alone and in combination with cyclophosphamide
Protocol: Tumors were harvested on the last day or if the vehicles reached approx. 3000 mm^3. Tumors were cut in half. One half was cut in half again with ½ fixed in 10% NBF, and the other was frozen in OCT for frozen sections. The remaining half was processed to single cell suspension and evaluated by FACS using two panels. Antibodies used for staining for FACS were as follows. Staining with CD4 and CD8a: CD45-AF700 (BDB560510) at 1.25 ug/ml; […] Staining with CD11b and GR-1: CD45-AF700 (BDB560510) at 1.25 ug/ml; […] CD45-AF700 (BDB560510) at 1.25 ug/ml; […] Staining with MDSC panel: CD45-AF700 (BDB560510) at 1.25 ug/ml; […] Ly6C APC at 2.5 ug/ml; and Ly6G FITC at 2.5 ug/ml.

[11] = test system: GL-261 tumors; test: GL-261 glioma model with or without temozolomide; assay type: in vivo, mouse; conditions: 15 mg/kg QD PO from the start of treatment, vs vehicle
Protocol: TMZ was dosed IP 1×/day for 7 days.
Animals: C57 Albino mice (male) from Jackson Labs, n=80. Parameters Evaluated:
In life: Mice were dosed QD with Compound BB. Temozolomide was dosed QD IP, for 7 days. Tumor measurements and bodyweights were taken 2×/week, but caliper and xenogen measurements.
End point analysis: Tumors were cut in half. One half was cut in half again with ½ fixed in 10% NBF the other was frozen in OCT for frozen sections. The remaining half was processed to single cell suspension and evaluated by FACS.
PD satellite group—8 mice from the TMZ treated mice and 8 mice from the vehicle treated mice were sacrificed on day 7 post treatment. Tumors were processed to single cell suspension and evaluated by FACS.

[12] = test system: pAKT S473 in T cells and monocytes; test: Ex vivo whole blood CXCL12 stimulation of phospho-AKT, LLC-bearing mice; assay type: in vivo, mouse; conditions: 12 days QD PO, 2 h post dose
Protocol: C57 BL/6 Albino mice were implanted with 1×10^6 cells in a SC injection in the hind flank. The cell implant material was generated from brei that was passaged from mouse to mouse. Treatment started when tumors were between 160-180 mm^3. Mice were dosed for 12 days, QD, PO with vehicle, 15, 7.5 or 3 mg/kg. On day 12 mice were dosed and terminal blood was collected 2 h post dose by cardiac stick collection. Blood was placed in EDTA K2 collection tube and stored at room temp for PD analysis.
Blood from each animal was aliquotted into 2 plates and warmed to 37° C. degrees. PBS was added to one plate as an unstimulated control. Murine CXCL12/SDF-1 was added to the second plate to a final concentration of 800 ng/mL and plate was returned to the 37° C. degree block. After 2 minutes of incubation, blood was lysed and fixed using paraformaldehyde. Samples were washed and frozen until flow cytometric analysis. T cells were gated using an antibody to CD3 and monocytes were gated as LY6G^− LY6C^high. Intracellular pAKT S473 was measured and percent positive was used for graphing.

With `C[C@H](NC(=O)c1c(N)nn2cccnc12)c1cc2cccc(C#Cc3cnn(C)c3)c2c(=O)n1-c1ccccc1` [Compound BB] the tumor growth [1] was “further reduction in tumor growth”, the tumor growth ([2]; Compound BB alone (FIG. 35)) was “reduction in tumor growth” and the tumor growth ([2]; co-administration of Compound BB and 5-FU (FIG. 35)) was “further reduction”. The immune suppressive environment [3] was “reduces”, the “M2 TAM differentiation (ARG1 levels)” value [4] was “inhibited M2 TAM differentiation much more effectively than PI3K-δ inhibitor” and the “VEGF and ARG1 in MDSC differentiation assay” value [5] was “suppressed both VEGF (FIG. 24A) and ARG1 (FIG. 24B)”. For the same molecule, the “Infiltrating TAMs” value ([6]; FIG. 38A) was “the number of infiltrating TAMs was decreased”, the “CD206 staining (M2 polarized suppressive macrophages)” value ([6]; FIG. 39) was “CD206 staining was reduced” and the “M2 macrophage markers VEGF and ARG-1 (RNA)” value [7] was “trended towards reduction”. For the same molecule, the IC50 [8] was 10 to 25 µM, the “Tumor growth, LLC tumor brei model” value [9] was “reduced tumor growth by about the same amount” and the “CD206 population in LLC tumors” value [10] was “decrease in the CD206 population”. The “Tumor volume, GL-261 glioma model” value [11] was “significant reduction in tumor volume”, the “Ex vivo whole blood CXCL12 stimulation of phospho-AKT in T cells” value ([12]; FIG. 58) was “inhibits the ex vivo whole blood stimulation of phosphor-AKT in T cells” and the “Ex vivo whole blood CXCL12 stimulation of phospho-AKT in monocytes” value ([12]; FIG. 59) was “inhibits the ex vivo whole blood stimulation of phosphor-AKT in monocytes”.
